Where two headings read alike, the source gives them in different places.
Assays:
[1] = cited from earlier work; for Cmax in blood or plasma / Concentration in Saliva: THC (40 mg); for Concentration in Saliva: maximum concentration in oral fluid
[2] = THC and metabolite concentrations in oral fluid and whole blood after smoking a cannabis joint (Fabritius et al.)
Text: (§1) While pharmacokinetic profile is specific to each individual drug, there are multiple challenges with immunoassay-based roadside drug testing. Current hand-held immunoassays drug testing devices from saliva detect the metabolites of the drugs in question. One challenge with metabolite testing is that depending on the drug and on the mode of administration, there may be delays in the detectability of the drug from the time of ingestion to the test time. For example, in the case of methylenedioxy-methamphetamine (MDMA) detection, the time to maximum concentration of (tmax) of MDMA is 2.8 hours, while for its main metabolite, methylenedioxyamphetamine (MDA), the tmax increases to 4.8 hours. […] This makes metabolite detection very challenging.

[3] = MA (20 mg), cited from earlier work; for Concentration in Saliva: maximum concentration in oral fluid
[4] = Cocaine (75 mg subcutaneous), cited from earlier work
[5] = Cocaine and metabolites in human oral fluid and plasma following controlled administration (Scheidweiler et al.)
Text: as §1

[6] = Methamphetamine disposition in oral fluid and plasma (Huestis et al.)
Text: as §1

[7] = MDMA (75 mg), oral, cited from earlier work; for Concentration in Saliva: maximum concentration in oral fluid
[8] = after MDMA; cited from earlier work
[9] = Oral fluid and plasma MDMA and metabolite after controlled oral MDMA administration (Desrosiers et al.); type: in vivo, human; conditions: MDMA (75 mg); for Kp: human, saliva (oral fluid) / plasma, read-out: Ratio Saliva/Blood
Text: This makes metabolite detection very challenging.

[10] = cited from earlier work
[11] = Cocaine (75 mg subcutaneous), cocaine vs BE + EME

For `CCCCCc1cc(O)c2c(c1)OC(C)(C)[C@@H]1CCC(C(=O)O)=C[C@@H]21` [THC-COOH], the “Cmax in blood or plasma” value [1] is given as 41 ng/mL, the “Concentration in Saliva” value [1] is given as 0.3 ng/mL and the “Ratio Saliva/Blood” value ([2]; THC (40 mg)) is given as 0.007.
In the case of `CC(N)Cc1ccccc1` (stereo not drawn) [A], the “Concentration in Saliva” value [3] is listed as 14 ng/mL.
For `COC(=O)[C@H]1[C@@H](OC(=O)c2ccccc2)C[C@@H]2CC[C@H]1N2C` [Cocaine, cocaine], the “Cmax in blood or plasma” value [4] is listed as 305 ng/mL, the “Concentration in Saliva” value ([4]; maximum concentration in oral fluid) is listed as 1092 ng/mL and the “Ratio Parent:Metabolite, Cmax in blood or plasma” value (shortened to “Ratio Parent:Metabolite, Cmax”) [5, 11] is listed as 0.8. For the same compound, the “Ratio Parent:Metabolite, concentration in saliva” value [5, 11] was 4.1 and the Kp ([5]; human, saliva (oral fluid) / plasma, sc, 75 mg) was 3.6.
For `CN[C@@H](C)Cc1ccccc1` [MA, methamphetamine], the “Ratio Parent:Metabolite, Cmax” value ([6]; MA (20 mg), MA vs A) was 5.3, the “Ratio Parent:Metabolite, concentration in saliva” value ([6]; MA (20 mg), MA vs A) was 13.7 and the Kp ([6]; human, saliva (oral fluid) / plasma, 20 mg) was 6. For the same compound, the “Cmax in blood or plasma” value [3] was 32 ng/mL and the “Concentration in Saliva” value [3] was 192 ng/mL.
For `CC(N)Cc1ccc2c(c1)OCO2` (stereo not drawn) [MDA, methylenedioxyamphetamine], the “Cmax in blood or plasma” value [7] is given as 7 ng/mL, the “Concentration in Saliva” value [7] is given as 41 ng/mL and the “time to maximum concentration (tmax)” value [8] is given as 4.8 h. For the same compound, the Kp [9] was 5.8.
In the case of `CNC(C)Cc1ccc2c(c1)OCO2` (stereo not drawn) [MDMA, methylenedioxy-methamphetamine], the “Cmax in blood or plasma” value [7] is given as 150 ng/mL, the “Concentration in Saliva” value [7] is given as 1643 ng/mL and the “time to maximum concentration (tmax)” value [8] is given as 2.8 h. The “Ratio Parent:Metabolite, concentration in saliva” value ([9]; MDMA vs MDA) was 40 and the Kp [9] was 11.
In the case of `CCCCCc1cc(O)c2c(c1)OC(C)(C)[C@@H]1CCC(C)=C[C@@H]21` [THC, Δ9-tetrahydrocannabinol], the “Cmax in blood or plasma” value [1] is given as 87 ng/mL, the “Concentration in Saliva” value [1] is given as 636 ng/mL and the “THC concentration in saliva relative to main metabolite THC-COOH (times higher)” value ([1]; in one study, saliva) is given as roughly 2000 ×. For the same compound, the “time over which saliva THC concentration decreases slowly after consumption” value ([10]; THC ingested from food, saliva) was “about 24 hours”, the “THC concentration in saliva after being ingested from food versus same amount of smoked THC” value ([10]; first 15 minutes, saliva) was “about ten times lower” and the “rapid decay after maximum concentration” value ([10]; smoked or vaped THC) was 1 to 2 h. The “time to peak effect and maximum concentration” value ([10]; smoked or vaped THC) was “seconds or minutes”, the “Ratio Parent:Metabolite, Cmax” value ([2]; THC (40 mg), THC vs THC-COOH) was 2.1 and the “Ratio Parent:Metabolite, concentration in saliva” value ([2]; THC (40 mg), THC vs THC-COOH) was 2120. It also gave a Kp ([2]; human, saliva (oral fluid) / whole blood, inhaled, 40 mg) of 7.3.
